# Measurements: patent US7427617B2, “Morpoline-bridged indazole derivatives” (Bayer Healthcare AG, priority 2002, dated 2008)
# Tested on: primary cortical neurons
# Assay: Increase of cGMP in primary cortical neurons
# Type: cell-based
# Settings: 0.1 μM test substance; rat primary cortical neurons; IBMX 100 μM; 20 min at 37° C.; cGMP by EIA
# Procedure: Increase of cGMP in Primary Cortical Neurons
# Rat embryos (embryonic day 17-19) are decapitated, and the cerebrum is removed and incubated with 5 ml of papain solution and 250 μl of DNAse (papain kit from Cell-System) at 37° C. for 30 min, homogenized using a Pasteur pipette and centrifuged at 1200 rpm for 5 min. The supernatant is removed, the cell pellet resuspended (in 2.7 ml of EBSS [Earl's balanced salt solution], 300 μl of ovomucoid/albumin (conc.) solution, 150 μl of DNAse; papain kit from Cell-System), layered over 5 ml of ovomucoid/albumin solution and centrifuged at 700 rpm for 6 min. The supernatant is removed, the cells are resuspended in cultivation medium (Gibco neurobasal medium, B27 Supplement 50×1 ml/100 ml, 2 mM L-glutamine), counted (approx. 150 000 cells/well) and plated out on poly-D-lysine-coated 96-well plates (Costar) with 200 μl/well. After 6-7 days at 37° C. (5% CO2), the neurons are freed of culture medium and washed once with assay buffer (154 mM NaCl, 5.6 mM KCl, 2.3 mM CaCl22H2O, 1 mM MgCl2, 5.6 mM glucose, 8.6 mM HEPES (4-(2-hydroxyethyl)piperazine-1-ethanesulfonic acid), pH=7.4). […] After incubation at 37° C. for 20 min, the assay buffer is replaced by 200 μl/well of lysis buffer (cGMP EIA RPN 226 from Amersham Pharmacia Biotech), and the cGMP content of the lystates is determined using an EIA assay kit.
smiles,measurement,value
"Nc1nc(-c2nn(Cc3ccccc3F)c3ccccc23)ncc1N1C2CCCC1COC2 [Example 1, 2-[1-(2-Fluorobenzyl)-1H-indazol-3-yl]-5-(3-oxa-9-azabicyclo[3.3.1]non-9-yl)-4pyrimidinylamine]",increase in cGMP,statistically significant increase in cGMP
